We go through twelve molecules from patent US9434684B2, “Oxime-substituted amide compound and pest control agent” (Nissan Chemical Industries, Ltd., priority 2012, dated 2016).

The test system of data set [1] is Botrytis cinerea. The data set is described as follows: Preventive effect against cucumber gray mold (mycelium inoculation). Format: in vivo. Particulars: 48 h, test solution A 500 ppm, 2 days. As for the experimental part: (§1) Compounds of the present invention were dissolved in a solvent for emulsion (a mixture of Sorpol (registered trademark) 3005XL (manufactured by Toho Chemical Industry Co., Ltd.): N-methylpyrrolidone:Solvesso (registered trademark) 200 (manufactured by ExxonMobil Chemical) in a ratio of 1:5:2) to prepare 20% emulsifiable concentrates. Then, distilled water was added to dilute the emulsifiable concentrates to the predetermined concentration (500 ppm), and the obtained solutions were used in the following Test Examples 1 to 7. Cucumber (cultivar: Sagami Hanjiro) was planted in 90 cm^3 plastic pots, and in the seed leaf stage, 5 ml per pot of test solutions A of the compounds of the present invention were applied. On the next day, the pots were put in a plastic container, and agar blocks (diameter: 5 mm) containing Botrytis cinerea preliminarily cultivated in a PDA medium were inoculated to the seed leaves of the cucumber treated with the solutions. After the inoculation, the plastic container was covered with a plastic sheet and humidified, and placed at 20° C. for 2 days, whereupon the proportion of the formed lesion in the inoculated leaves was measured to calculate the control value in accordance with the same formula as in Test Example 1. Here, the test was carried out in duplicate.

The subject of data set [2] is Sclerotinia sclerotiorum. Briefly: Preventive effect against cucumber stem rot. The format is in vivo. Particulars: 48 h, test solution A 500 ppm, 2 days. The method, then: as §1, with “After drying in air,” for “On the next day,”, “Sclerotinia sclerotiorum” for “Botrytis cinerea”
For data set [3], the system named is Botrytis cinerea. The data set is described as follows: Preventive effect against cucumber gray mold (spore inoculation). The format is in vivo. Particulars: 72 h, cucumber leaves, test solution A 500 ppm, 3 days. The method, then: Compounds of the present invention were dissolved in a solvent for emulsion (a mixture of Sorpol (registered trademark) 3005XL (manufactured by Toho Chemical Industry Co., Ltd.): N-methylpyrrolidone:Solvesso (registered trademark) 200 (manufactured by ExxonMobil Chemical) in a ratio of 1:5:2) to prepare 20% emulsifiable concentrates. Then, distilled water was added to dilute the emulsifiable concentrates to the predetermined concentration (500 ppm), and the obtained solutions were used in the following Test Examples 1 to 7. Cucumber (cultivar: Sagami Hanjiro) was planted in 90 cm^3 plastic pots, and in the seed leaf stage, 5 ml per pot of test solutions A of the compounds of the present invention were applied. After drying in air, the treated leaves were cut and put in plastic containers. 30 μl of a mixture of a suspension of conidium of Botrytis cinerea and a dissolved PDA medium in a ratio of 1:1 was dropped on each treated leaf and inoculated. After the inoculation, the plastic containers were placed at 20° C. in humid conditions for 3 days, and the proportion of the formed lesion in the inoculated leaves was measured to calculate the control value in accordance with the same formula as in Test Example 1. Here, the test was carried out in duplicate.

Data set [4] has as its system Phaeosphaeria nodorum (synonym: Septoria nodorum). Briefly: Preventive effect against wheat glume blotch. Format: in vivo. Particulars: Parastagonospora nodorum, 192 h, test solution A 500 ppm, 2 + 6 days. The method, then: (§2) Compounds of the present invention were dissolved in a solvent for emulsion (a mixture of Sorpol (registered trademark) 3005XL (manufactured by Toho Chemical Industry Co., Ltd.): N-methylpyrrolidone:Solvesso (registered trademark) 200 (manufactured by ExxonMobil Chemical) in a ratio of 1:5:2) to prepare 20% emulsifiable concentrates. Then, distilled water was added to dilute the emulsifiable concentrates to the predetermined concentration (500 ppm), and the obtained solutions were used in the following Test Examples 1 to 7. To wheat (cultivar: Haruyutaka) in 1.3-leaf stage planted in 90 cm^3 plastic pots, 5 ml per pot of test solutions A of the compounds of the present invention were applied. On the next day, a suspension of conidium of Phaeosphaeria nodorum synonym: Septoria nodorum) was spray-inoculated to the wheat, and the pots were placed in an inoculation chamber at 20° C. under a humidity of 100% for 2 days. Then, the pots were placed in an air-conditioned greenhouse (20° C.) for 6 days. The proportion of the formed lesion in the inoculated leaves was measured to calculate the control value in accordance with the same formula as in Test Example 1. Here, the test was carried out in duplicate.

Data set [5] relates to Puccinia recondita. Briefly: Preventive effect against wheat brown leaf rust. Format: in vivo. Particulars: 216 h, test solution A 500 ppm, 1 + 8 days. The method, then: as §2, with “Norin-61-go)” for “Haruyutaka)”, “spore” for “conidium”, “Puccinia recondita” for “Phaeosphaeria nodorum synonym: Septoria nodorum)”, “1 day.” for “2 days.”, “8” for “6”
In data set [6] the test system is Meloidogyne incognita. Briefly: Preventive effect on Meloidogyne incognita (garden balsam seedlings, root knot). Particulars: 504 h, test solution B 100 ppm, 1 ml per seedling, 3 weeks, read-out: efficacy (damage degree, root knot, relative to non-treated plot). Format: in vivo. The method, then: Compounds of the present invention were dissolved in dimethylsulfoxide to prepare 1% solutions. Then, distilled water was added to dilute the solutions to the predetermined concentration (100 ppm), and the obtained solutions were used in the following Test Examples 8 to 12. 1 ml per seedling of test solutions B of the compounds of the present invention were treated to the bases of garden balsam seedlings (about 2 weeks after budding) planted in a cell tray of which each cell was filled with 10 g of soil. 1 Hour after the application, 1 ml per cell of water containing Meloidogyne incognita 2 L larvae (100 2 L larvae/1 ml) was applied to the bases. The tray was placed in a greenhouse for 3 weeks, and the root knot level formed on the root was determined in accordance with the following damage index and the damage degree to calculate the efficacy (%) relative to the non-treated plot in accordance with the following formula. <Damage Index> 0: No knot observed. 1: Knot observed on a part of the root system. 2: Knot observed on the entire root system. 3: Large knot observed. 4: Large knot observed on the entire root system. [Damage degree]=[Σ(damage index×number of seedlings at each index)/(4×number of seedlings investigated)]×100 Efficacy(%)=[1−(damage degree in treated plot/damage degree in non-treated plot)]×100

Turning to `CC(C)(C)ON=C(CNC(=O)c1nccnc1C(F)(F)F)c1ncc(Cl)cc1Cl` (single isomer, unassigned) [9-006, N-[2-(3,5-dichloropyridin-2-yl)-2-(tert-butoxyimino)ethyl]-3-(trifluoromethyl)pyrazine-2-carboxamide], the pest or weed control at 500 µg/mL in data set [1] and in data set [2] was at least 70% in each case.

Turning to `CCO/N=C(\c1ncc(Cl)cc1Cl)[C@H](C)NC(=O)c1ccccc1C(F)(F)F` [2-124, (S)—N-[2-(3,5-dichloropyridin-2-yl)-2-[(Z)-ethoxyimino]-1-methylethyl]-2-(trifluoromethyl)benzamide], the pest or weed control at 500 µg/mL in data set [3], in data set [1], in data set [2], in data set [4] and in data set [5] was at least 70% throughout.

With `CON=C(CN(C(C)=O)C(=O)c1ccccc1C(F)(F)F)c1ncc(Cl)cc1Cl` [4-013], the pest or weed control at 500 µg/mL in data set [3], in data set [1] and in data set [2] was at least 70% in each case.

As to `CON=C(CN(SC(Cl)(Cl)Cl)C(=O)c1ccccc1C(F)(F)F)c1ncc(Cl)cc1Cl` [4-015], the pest or weed control at 500 µg/mL in data set [3], in data set [1] and in data set [2] was at least 70% throughout.

On to `CC(C)ON=C(CNC(=O)c1ccccc1C(F)(F)F)c1ncc(Cl)nc1Cl` [24-001], for which the pest or weed control at 500 µg/mL in data set [3], in data set [1] and in data set [2] was at least 70% each time.

For `CON=C(c1ncc(Cl)cc1Cl)C(C)NC(=O)c1ccccc1C(F)(F)F` (centres unmarked) [Compound No. 2-115, N-[2-(3,5-dichloropyridin-2-yl)-2-methoxyimino-1-methylethyl]-2-(trifluoromethyl)benzamide], the pest or weed control at 500 µg/mL in data set [3], in data set [1], in data set [2], in data set [4] and in data set [5] was at least 70% each time. The pest or weed control at 100 µg/mL in data set [6] was at least 50%.

Turning to `CO/N=C(\c1ncc(Cl)cc1Cl)C(C)NC(=O)c1ccccc1C(F)(F)F` (centres unmarked) [Compound No. 2-117, (Z)—N-[2-(3,5-dichloropyridin-2-yl)-2-methoxyimino-1-methylethyl]-2-(trifluoromethyl)benzamide], the melting point fell in the range of 104 to 105 °C. Further, the pest or weed control at 500 µg/mL in data set [3] is at least 70%. The molecule also came in with a pest or weed control at 500 µg/mL in data set [1] of at least 70%. The pest or weed control at 500 µg/mL in data set [5] was at least 70%. In addition, the pest or weed control at 100 µg/mL in data set [6] was at least 50%.

For `CCO/N=C(/CNC(=O)c1ccccc1C(F)(F)F)c1ncc(Cl)cc1Cl` [Compound No. 2-120, (Z)—N-[2-(3,5-dichloropyridin-2-yl)-2-(ethoxyimino)ethyl]-2-(trifluoromethyl)benzamide], the melting point was in the range of 84 to 86 °C. In data set [3], this molecule gave a pest or weed control at 500 µg/mL of at least 70%. Moreover, in data set [1], the pest or weed control at 500 µg/mL is at least 70%. Moreover, in data set [4], the pest or weed control at 500 µg/mL is at least 70%. The pest or weed control at 500 µg/mL in data set [5] is at least 70%. The pest or weed control at 100 µg/mL in data set [6] is at least 50%.

As for `CCCO/N=C(/CNC(=O)c1ccccc1C(F)(F)F)c1ncc(Cl)cc1Cl` [Compound No. 2-126, (Z)—N-[2-(3,5-dichloropyridin-2-yl)-2-(propoxyimino)ethyl]-2-(trifluoromethyl)benzamide], the melting point fell in the range of 80 to 83 °C. Besides, in data set [5], the pest or weed control at 500 µg/mL was at least 70%. Further, the pest or weed control at 100 µg/mL in data set [6] was at least 50%.

With `CC(O/N=C(/CNC(=O)c1ccccc1C(F)(F)F)c1ncc(Cl)cc1Cl)c1ccc(F)cc1` (centres unmarked) [Compound No. 2-174, (Z)—N-[2-(3,5-dichloropyridin-2-yl)-2-[1-(4-fluorophenyl)ethoxyimino]ethyl]-2-(trifluoromethyl)benzamide], the pest or weed control at 500 µg/mL in data set [5] is at least 70%. Moreover, in data set [6], the pest or weed control at 100 µg/mL is at least 50%.

As for `CON=C(CNC(=S)c1ccccc1C(F)(F)F)c1ncc(Br)cc1Cl` [Compound No. 5-001, N-[2-(5-bromo-3-chloropyridin-2-yl)-2-(methoxyimino)ethyl]-2-(trifluoromethyl)benzthioamide], the pest or weed control at 500 µg/mL in data set [3], in data set [1], in data set [2], in data set [4] and in data set [5] was at least 70% each time.

For the molecule `CON=C(CN(C(=O)c1c(C(F)(F)F)nn(C)c1F)C1CC1)c1ncc(Cl)cc1Cl` [Compound No. 17-009, N-cyclopropyl-N-[2-(3,5-dichloropyridin-2-yl)-2-(methoxyimino)ethyl]-5-fluoro-1-methyl-3-trifluoromethyl-1H-pyrazole-4-carboxamide], the melting point lay in the range of 95 to 97 °C. The pest or weed control at 500 µg/mL in data set [3] is at least 70%. Moreover, the pest or weed control at 500 µg/mL in data set [2] is at least 70%. Moreover, in data set [4], the pest or weed control at 500 µg/mL was at least 70%.
